Results reported in patent US10730839B2, “Quinolines as cytoprotective agents” (priority 2016, dated 2020).

system: HEK293 cells; N2a cells; assay: Cell rescue assay: protection against thapsigargin (TG)-induced cell-death (ALAMARBLUE); assay type: cell-based, Human; Mouse; settings: Homo sapiens; compound 20 μM, 2 hrs before thapsigargin (15 μM HEK293, 1 μM N2a), 24 hrs; viability as % RFU compared to control; read-out: Cell Survival %
Procedure: Protection against Thapsigargin (TG)-induced Cell-death. Human embryonic kidney (HEK293) cells were grown in Dulbecco's Modified Eagle's Medium (DMEM) with 10% FBS and 1% antibiotic antimycotic solution (ABAM). Mouse neuroblastoma (N2a) cells were grown in 1:1 DMEM:OPTI-MEM® with 5% FBS and 1% ABAM. All cells were grown in 10% CO2 in a humidified environment of the incubator. Cells grown in 96-well plates were exposed to a test compound (20 μM) for 2 hrs before addition of thapsigargin (15 μM for HEK293 cells and 1 μM for N2a cells) to induce ER stress. After incubation in cell-culture incubator for 24 hrs, ALAMARBLUE® regent (10% v/v) was added to the wells. Fluorescence reading was taken 2 hrs after the addition of the ALAMARBLUE® regent. Cell-viability was calculated as a percentage of relative fluorescence unit (RFU) compared to control. […] The biological results are summarized in Table 2, where each compound was tested at 20 μM and where A represents a viability greater than 50%, B represents a viability greater than 10% and less than 50%, C represents a value at or below 10%.

Structure (SMILES)	viability at 20 µM [%]
Cc1ccc2cccc(C(=O)Nc3ccc(OC(C)C)cc3)c2n1 [A1, N-(4-Isopropoxyphenyl)-2-methylquinoline-8-carboxamide]	> 50
Cc1ccc2cccc(C(=O)Nc3ccc(Cl)cc3)c2n1 [A2, N-(4-Chlorophenyl)-2-methylquinoline-8-carboxamide]	> 50
Cc1ccc2cccc(C(=O)Nc3cccc(F)c3)c2n1 [A3, N-(3-Fluorophenyl)-2-methylquinoline-8-carboxamide]	10 to 50
Cc1ccc2cccc(C(=O)Nc3ccc(N(C)C)cc3)c2n1 [A4, N-(4-(Dimethylamino)phenyl)-2-methylquinoline-8-carboxamide]	10 to 50
Cc1ccc(NC(=O)c2cccc3ccc(C)nc23)cc1 [A5, N-(4-Methylphenyl)-2-methylquinoline-8-carboxamide]	> 50

system: SH-SY5Y cells; assay: Cell rescue assay: protection against ß-amyloid-induced cell toxicity; assay type: cell-based; settings: Homo sapiens, 96 h, 7.5 uM compound, AB 1-42 at 10 uM, 4 days, OD at 490 nm, read-out: Cell Survival % (cell rescue)
Procedure: Protection against ß-amyloid-induced cell toxicity. Chonpathompikunlert et al. Eu. J. Pharmacol. 2011, 650, 544-549. Human SH-SY5Y cells are suspended in media containing 2% FBS and 2× Gentamicin. Transfer 100 ul/well culture to 96-well plate (20,000 cells/well; passage #5) and incubate overnight. Prepare compound samples at 30 uM. Add 50 ul of the samples to the cells [[…]] and incubate 3 hours. Make stock of 40 uM AB 1-42 peptide in assay media. Transfer 50 ul/well to cells/compounds in assay plate. The final assay volume is 200 ul/well, containing 2% FBS, 2× Gentamicin, 7.5 uM compound and AB 1-42 at 10 uM. Incubate for 4 days then add 20 ul of Promega Substrate Cell Titer 96 Aqueous One Solution Reagent to each well. Incubate 37 OC and read OD at 490 nm. The results are summarized in Table 3, where A represents a value equal to or greater than 50% cell rescue, B represents a value greater than 10% and less than 50% cell rescue, and C represents a value greater than 1% and less than or equal to 10% cell rescue.

Structure (SMILES)	viability at 7.5 µM [%]
Cc1ccc2cccc(C(=O)Nc3ccc(OC(C)C)cc3)c2n1 [A1, N-(4-Isopropoxyphenyl)-2-methylquinoline-8-carboxamide]	10 to 50
Cc1ccc2cccc(C(=O)Nc3ccc(Cl)cc3)c2n1 [A2, N-(4-Chlorophenyl)-2-methylquinoline-8-carboxamide]	≥ 50
Cc1ccc2cccc(C(=O)Nc3cccc(F)c3)c2n1 [A3, N-(3-Fluorophenyl)-2-methylquinoline-8-carboxamide]	10 to 50
Cc1ccc2cccc(C(=O)Nc3ccc(N(C)C)cc3)c2n1 [A4, N-(4-(Dimethylamino)phenyl)-2-methylquinoline-8-carboxamide]	10 to 50
Cc1ccc(NC(=O)c2cccc3ccc(C)nc23)cc1 [A5, N-(4-Methylphenyl)-2-methylquinoline-8-carboxamide]	≥ 50

system: Ob/ob mice; assay: Effect of a SERCA agonist on the level of blood glucose; assay type: in vivo; settings: Mus musculus, ip, 96 h, 50 mg/kg i.p. once a day for 5 days, fasting glucose at baseline and 4 days after administration, read-out: Glucose level reduction
Procedure: Ob/ob mice (10 weeks old, n=7) were intraperitoneally (i.p.) injected with 100 μL of a solution containing 0 (vehicle) or 50 mg/kg of a test compound once a day for a total of 5 days. Fasting glucose was measured at baseline and 4 days after the administration of the test compound. Glucose levels were measured in blood samples drawn from the tail vein using a handheld glucose sensor. Compound effects on blood glucose are shown in Table 5 where A represents a 10-20% reduction in blood glucose, B represents a 21-30% reduction in blood glucose, and C represents a greater than 30% reduction in blood glucose levels.

Structure (SMILES)	inhibition in vivo at 50 mg/kg [%]
Cc1ccc2cccc(C(=O)Nc3ccc(OC(C)C)cc3)c2n1 [A1, N-(4-Isopropoxyphenyl)-2-methylquinoline-8-carboxamide]	> 30
Cc1ccc2cccc(C(=O)Nc3ccc(Cl)cc3)c2n1 [A2, N-(4-Chlorophenyl)-2-methylquinoline-8-carboxamide]	> 30
Cc1ccc2cccc(C(=O)Nc3cccc(F)c3)c2n1 [A3, N-(3-Fluorophenyl)-2-methylquinoline-8-carboxamide]	10 to 20
Cc1ccc2cccc(C(=O)Nc3ccc(N(C)C)cc3)c2n1 [A4, N-(4-(Dimethylamino)phenyl)-2-methylquinoline-8-carboxamide]	21 to 30
Cc1ccc(NC(=O)c2cccc3ccc(C)nc23)cc1 [A5, N-(4-Methylphenyl)-2-methylquinoline-8-carboxamide]	21 to 30

system: CSM14.1 neuronal cells; assay: Cell survival assay (thapsigargin-treated cells, CELLTITER-GLO luminescence); assay type: cell-based; settings: compound 2 hrs before about 15 μM thapsigargin, overnight
Procedure: CSM14.1 neuronal cells were maintained in Complete Medium at 32° C.; wherein the Complete Medium contained Dulbecco's modified eagle medium (DMEM) with 10% fetal bovine serum (FSB), 1% L-glutamine, 100 IU/mL penicillin, and 100 μg/mL streptomycin. The cells were recovered from cultures by trypsinization and then seeded in 384 well plates (Greiner #781098) at a concentration of 1,000 cells/well in 20 μL of DMEM Assay Medium, wherein the DMEM Assay Medium contained 2% FBS, 100 IU/mL penicillin, and 100 μg/mL streptomycin. Seeding was performed using a MultiDrop Combi reagent broadcaster. The plates were incubated overnight at 32° C. A test compound was prepared by 2-fold serial dilution in 100% DMSO using a BIOMEK® 2000 liquid handler (Beckman Coulter). A dose-response curve containing 10 concentrations of the test compound was obtained. Using a BIOMEK® FX liquid handler (Beckman Coulter), 2.5 μL of the test compound was transferred from the 100% DMSO serial dilution plate to an intermediate plate containing 47.5 μL of DMEM Assay Medium containing 2% FBS, 100 IU/mL penicillin, and 100 μg/mL streptomycin and mixed. To reduce or eliminate the interference from the compound's precipitation, 6 μL of the diluted compound was immediately transferred to the assay plate to achieve a high compound concentration of 100 μM in 99% DMEM Assay Medium and 1% DMSO. After the assay plates were incubated for 2 hrs, 4 μL of 112.5 μM thapsigargin (TG) (DMSO stock diluted into Assay TC Medium) was dispensed into each testing well with a MultiDrop Combi reagent broadcaster for a final concentration of about 15 μM TG. The tissue culture media (4 μL) containing vehicle only was transferred manually to each control cell using a 16 channel electronic pipette. After the plates were incubated overnight (about 16 to 24 hrs), CELLTITER-GLO® (Promega) (16 μL) was added to all wells and luminescence was measured. High luminescence indicates cell survival. The biological results are summarized in Table 1 where A represents a cell viability EC50 less than 1 μM and B represents a value greater than 1 μM and less than 10 μM and C represents a value equal to or greater than 10 μM and less than 20 μM.

Structure (SMILES)	EC50 [µM]
Cc1ccc2cccc(C(=O)Nc3ccc(OC(C)C)cc3)c2n1 [A1, N-(4-Isopropoxyphenyl)-2-methylquinoline-8-carboxamide]	1 to 10
Cc1ccc2cccc(C(=O)Nc3ccc(Cl)cc3)c2n1 [A2, N-(4-Chlorophenyl)-2-methylquinoline-8-carboxamide]	1 to 10
Cc1ccc2cccc(C(=O)Nc3cccc(F)c3)c2n1 [A3, N-(3-Fluorophenyl)-2-methylquinoline-8-carboxamide]	10 to 20
Cc1ccc2cccc(C(=O)Nc3ccc(N(C)C)cc3)c2n1 [A4, N-(4-(Dimethylamino)phenyl)-2-methylquinoline-8-carboxamide]	< 1
Cc1ccc(NC(=O)c2cccc3ccc(C)nc23)cc1 [A5, N-(4-Methylphenyl)-2-methylquinoline-8-carboxamide]	1 to 10

biological target: T1, SERCA (Homo sapiens, UniProt P16615); assay: Ca-ATPase assay (NADH-linked, enzyme-coupled ATPase assay); assay type: biochemical; settings: microsomal preparations from HEK 293 cells, Vmax from Hill fit of ATPase calcium-dependence, relative to controls
T1 construct: microsomal preparations from HEK 293 cells; endogenous in cells; host or cells: HEK 293 cells (microsomal preparation)
Procedure: A Ca-ATPase assay was performed using microsomal preparations from HEK 293 cells at a series of calcium concentrations corresponding to the physiological range, relative to controls. The ATP hydrolysis rate was measured over a range of calcium concentrations in the presence of test compounds using an NADH-linked, enzyme-coupled ATPase assay adapted for 96-well microplates, with Vmax determined by fitting the ATPase calcium-dependence to the Hill function. Each well contained 2 μg or 7 μg of SR vesicles (optimized for skeletal or cardiac SR, respectively), 50 mM MOPS (pH 7.0), 100 mM KCl, 5 mM MgCl2, 1 mM EGTA, 0.2 mM NADH, 1 mM phosphoenol pyruvate, 5 IU pyruvate kinase, 5 IU lactate dehydrogenase, and 3.5 μg/mL A23187 (a calcium ionophore). CaCl2 was added to set free [Ca^2+] to the specific values. The assay was started upon addition of ATP at a final concentration of 5 mM, and read in a SpectraMax Plus microplate spectrophotometer. The results are summarized in Table 4, where A represents an increase in SERCA Vmax greater than or equal to 50% and B represents a value greater than 10% and less than 50%.

T1 sequence (P16615 whole entry): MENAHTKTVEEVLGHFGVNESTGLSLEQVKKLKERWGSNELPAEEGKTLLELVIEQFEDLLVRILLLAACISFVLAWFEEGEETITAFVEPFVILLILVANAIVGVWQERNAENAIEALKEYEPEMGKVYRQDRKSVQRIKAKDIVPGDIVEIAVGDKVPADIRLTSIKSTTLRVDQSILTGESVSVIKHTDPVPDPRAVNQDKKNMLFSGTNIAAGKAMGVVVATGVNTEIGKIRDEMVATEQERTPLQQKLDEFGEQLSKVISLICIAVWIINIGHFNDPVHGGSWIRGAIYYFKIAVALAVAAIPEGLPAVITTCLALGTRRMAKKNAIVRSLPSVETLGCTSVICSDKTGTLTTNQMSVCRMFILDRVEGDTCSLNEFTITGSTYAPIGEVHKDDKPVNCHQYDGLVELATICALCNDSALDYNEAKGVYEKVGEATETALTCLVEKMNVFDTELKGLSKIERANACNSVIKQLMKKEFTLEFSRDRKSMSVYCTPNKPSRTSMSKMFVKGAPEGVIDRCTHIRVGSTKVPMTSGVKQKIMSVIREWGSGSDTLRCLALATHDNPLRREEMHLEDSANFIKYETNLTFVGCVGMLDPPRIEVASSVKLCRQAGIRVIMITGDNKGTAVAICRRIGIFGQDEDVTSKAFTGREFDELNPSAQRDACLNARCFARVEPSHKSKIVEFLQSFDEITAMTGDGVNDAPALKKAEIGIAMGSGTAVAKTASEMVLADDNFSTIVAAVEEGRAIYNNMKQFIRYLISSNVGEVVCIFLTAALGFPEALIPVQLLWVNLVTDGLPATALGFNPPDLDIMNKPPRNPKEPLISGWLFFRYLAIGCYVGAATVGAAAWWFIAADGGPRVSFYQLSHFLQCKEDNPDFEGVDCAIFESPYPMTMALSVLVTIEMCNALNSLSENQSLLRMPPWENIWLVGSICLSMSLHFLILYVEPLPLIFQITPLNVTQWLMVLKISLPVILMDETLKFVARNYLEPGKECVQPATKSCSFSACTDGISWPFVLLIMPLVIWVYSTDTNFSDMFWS

Structure (SMILES)	SERCA Vmax Increase
Cc1ccc2cccc(C(=O)Nc3ccc(OC(C)C)cc3)c2n1 [A1, N-(4-Isopropoxyphenyl)-2-methylquinoline-8-carboxamide]	A (an increase in SERCA Vmax greater than or equal to 50%)
Cc1ccc2cccc(C(=O)Nc3ccc(Cl)cc3)c2n1 [A2, N-(4-Chlorophenyl)-2-methylquinoline-8-carboxamide]	B (a value greater than 10% and less than 50%)
Cc1ccc2cccc(C(=O)Nc3cccc(F)c3)c2n1 [A3, N-(3-Fluorophenyl)-2-methylquinoline-8-carboxamide]	B (a value greater than 10% and less than 50%)
Cc1ccc2cccc(C(=O)Nc3ccc(N(C)C)cc3)c2n1 [A4, N-(4-(Dimethylamino)phenyl)-2-methylquinoline-8-carboxamide]	A (an increase in SERCA Vmax greater than or equal to 50%)
Cc1ccc(NC(=O)c2cccc3ccc(C)nc23)cc1 [A5, N-(4-Methylphenyl)-2-methylquinoline-8-carboxamide]	B (a value greater than 10% and less than 50%)
